# Reference: patent US12570655B2, “Cysteine covalent modifiers of AKT1 and uses thereof” (Terremoto Biosciences, Inc., priority 2023, dated 2026)
# Read-outs that look alike come from different tables or passages of the source.
# Tests used:
# Type in all cases: cell-based
# [1] = molecular target: T1, AKT1 E17K (Homo sapiens, UniProt P31749, E17K); assay: Live cell AKT1 E17K target engagement by NanoBRET competitive probe displacement; conditions: HEK293 cells transfected with kinase-NanoLuciferase fusion, 2 h at 37° C.
# T1 construct: expressed in transfected cells; host or cells: HEK293
# T1 sequence (P31749 whole entry E17K, the tested form may be a part): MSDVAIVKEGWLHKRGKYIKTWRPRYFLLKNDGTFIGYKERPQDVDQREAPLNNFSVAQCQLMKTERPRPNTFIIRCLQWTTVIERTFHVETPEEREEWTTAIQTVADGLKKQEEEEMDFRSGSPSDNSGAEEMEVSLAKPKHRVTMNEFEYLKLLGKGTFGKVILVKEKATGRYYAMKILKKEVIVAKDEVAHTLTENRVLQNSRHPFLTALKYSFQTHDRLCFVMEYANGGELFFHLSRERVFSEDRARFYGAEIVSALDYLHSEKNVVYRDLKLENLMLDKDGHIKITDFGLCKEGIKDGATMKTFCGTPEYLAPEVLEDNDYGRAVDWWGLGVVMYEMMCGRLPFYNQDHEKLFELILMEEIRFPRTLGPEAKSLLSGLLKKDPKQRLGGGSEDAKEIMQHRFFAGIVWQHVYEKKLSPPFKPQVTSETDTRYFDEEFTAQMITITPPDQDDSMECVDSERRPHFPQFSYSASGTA
# Method in brief: (§1)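 Steps: overnight transfection of HEK293 with kinase-NanoLuc plasmids; addition of compound dilutions and tracer (~EC50); 2 h incubation at 37 °C; substrate plus extracellular luciferase inhibitor; luminescence at 460 and 600 nm. IC50 values came from fitting the BRET ratio to a Hill equation.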
# [2] = molecular target: T2, AKT1 WT (Homo sapiens, UniProt P31749); assay: Live cell AKT1 WT target engagement by NanoBRET competitive probe displacement; conditions: HEK293 cells transfected with kinase-NanoLuciferase fusion, 2 h at 37° C.
# T2 construct: expressed in transfected cells; host or cells: HEK293
# T2 sequence (P31749 whole entry, the tested form may be a part): as the sequence (P31749 whole entry E17K, the tested form may be a part) above, with K17E counted along it
# Method in brief: as §1
# [3] = test system: LAPC4 prostate cancer cells; assay: Antiproliferative effects in LAPC4 cells (CellTiter Glo); conditions: LAPC4 cells (AKT1 E17K allele), read-out: LAPC4 proliferation IC50
# Method in brief: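 Growth inhibition is gauged by intracellular ATP content, measured with CellTiter Glo 72 h after compound addition to 1,000 seeded cells per well. IC50 derives from a Hill equation fit.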
# [4] = molecular target: T3, AKT2 (Homo sapiens, UniProt P31751); assay: Live cell AKT2 target engagement by NanoBRET competitive probe displacement; conditions: HEK293 cells transfected with kinase-NanoLuciferase fusion, 2 h at 37° C.
# T3 construct: expressed in transfected cells; host or cells: HEK293
# T3 sequence (P31751 whole entry, the tested form may be a part): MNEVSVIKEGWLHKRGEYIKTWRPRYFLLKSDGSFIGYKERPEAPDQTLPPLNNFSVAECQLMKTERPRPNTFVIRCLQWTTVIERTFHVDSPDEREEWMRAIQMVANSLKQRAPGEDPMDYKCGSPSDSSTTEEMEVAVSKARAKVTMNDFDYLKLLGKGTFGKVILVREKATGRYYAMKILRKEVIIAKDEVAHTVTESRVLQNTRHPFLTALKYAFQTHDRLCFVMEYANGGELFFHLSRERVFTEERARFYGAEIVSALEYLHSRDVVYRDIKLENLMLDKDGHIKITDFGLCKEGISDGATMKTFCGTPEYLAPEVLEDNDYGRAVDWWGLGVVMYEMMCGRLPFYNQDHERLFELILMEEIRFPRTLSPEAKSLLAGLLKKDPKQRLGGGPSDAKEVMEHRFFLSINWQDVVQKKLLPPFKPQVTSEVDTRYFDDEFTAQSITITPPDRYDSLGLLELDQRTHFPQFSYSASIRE
# Method in brief: as §1
SMILES,IC50 [1] [nM],IC50 [2] [nM],"IC50 ([3]; Homo sapiens, LAPC4, 72 h) [nM]",IC50 [4] [nM],IC50 ([3]; 72 h) [nM]
"C=CC(=O)Nc1c(F)cccc1C(=O)N[C@H]1CCc2cc(-n3c(-c4cccnc4N)nc4ccc(-n5cccn5)nc43)ccc21 [Example 44, N-[(1S)-5-[2-(2-aminopyridin-3-yl)-5-(pyrazol-1-yl)imidazo[4,5-b]pyridin-3-yl]-2,3-dihydro-1H-inden-1-yl]-3-fluoro-2-(prop-2-enamido)benzamide]",49,34.5,122,103,
"C=CC(=O)N1CCC(N[C@H]2CCc3cc(-n4c(-c5cccnc5N)nc5ccc(-n6cccn6)nc54)ccc32)C(C)C1 (single isomer, unassigned) [Example 99, 1-((3*,4*)-4-(((S)-5-(2-(2-aminopyridin-3-yl)-5-(1H-pyrazol-1-yl)-3H-imidazo[4,5-b]pyridin-3-yl)-2,3-dihydro-1H-inden-1-yl)amino)-3-methylpiperidin-1-yl)prop-2-en-1-one]",89.4,33.4,,560,716
"C=CC(=O)N1CC2CC[C@@H]1CC2N[C@H]1CCc2cc(-n3c(-c4cccnc4N)nc4ccc(-n5cccn5)nc43)ccc21 (single isomer, unassigned) [Example 131, 1-[(1R,4R,5*)-5-{[(1S)-5-[2-(2-aminopyridin-3-yl)-5-(pyrazol-1-yl)imidazo[4,5-b]pyridin-3-yl]-2,3-dihydro-1H-inden-1-yl]amino}-2-azabicyclo[2.2.2]octan-2-yl]prop-2-en-1-one]",> 1000,> 1000,1840,9530,
"C=CC(=O)Nc1cc(F)ccc1C(=O)N[C@H]1CCc2cc(-n3c(-c4cccnc4N)nc4ccc(-n5cccn5)nc43)ccc21 [Example 21, (S)-2-acrylamido-N-(5-(2-(2-aminopyridin-3-yl)-5-(1H-pyrazol-1-yl)-3H-imidazo[4,5-b]pyridin-3-yl)-2,3-dihydro-1H-inden-1-yl)-4-fluorobenzamide]",32.8,22.6,88.5,74.8,
"C=CC(=O)Nc1cc(C(F)F)ccc1C(=O)N[C@H]1CCc2cc(-n3c(-c4cccnc4N)nc4ccc(-n5cccn5)nc43)ccc21 [Example 43, (S)-2-acrylamido-N-(5-(2-(2-aminopyridin-3-yl)-5-(1H-pyrazol-1-yl)-3H-imidazo[4,5-b]pyridin-3-yl)-2,3-dihydro-1H-inden-1-yl)-4-(difluoromethyl)benzamide]",> 1000,317,> 10000,> 10000,
"C=CC(=O)N1CCC(N[C@@H]2c3ccc(-n4c(-c5cccnc5N)nc5ccc(-n6cccn6)nc54)cc3CC2(F)F)CC1 [Example 119, 1-(4-{[(1R)-5-[2-(2-aminopyridin-3-yl)-5-(pyrazol-1-yl)imidazo[4,5-b]pyridin-3-yl]-2,2-difluoro-1,3-dihydroinden-1-yl]amino}piperidin-1-yl)prop-2-en-1-one]",582,85.6,595,3590,
"CC#CC(=O)Nc1ccccc1C(=O)N[C@H]1CCc2cc(-n3c(-c4cccnc4N)nc4ccc(-n5cccn5)nc43)ccc21 [Example 9, N-[(1S)-5-[2-(2-aminopyridin-3-yl)-5-(pyrazol-1-yl)imidazo[4,5-b]pyridin-3-yl]-2,3-dihydro-1H-inden-1-yl]-2-(but-2-ynamido)benzamide]",96.9,21.9,528,440,
C=CC(=O)N1CCN(N[C@@H]2CCc3cc(-n4c(-c5cccnc5N)nc5ccc(C6CC6)nc54)ccc32)CC1 [Example 350],72.7,2510,1090,416,
"C=CC(=O)N1CCC(N[C@@H]2c3ccc(-n4c(-c5cccnc5N)nc5ccc(-n6cccn6)nc54)cc3CC2F)C(C)C1 (single isomer, unassigned) [Example 288, 1-[(3*,4*)-4-{[(1R,2*)-5-[2-(2-aminopyridin-3-yl)-5-(pyrazol-1-yl)imidazo[4,5-b]pyridin-3-yl]-2-fluoro-2,3-dihydro-1H-inden-1-yl]amino}-3-methylpiperidin-1-yl]prop-2-en-1-one]",38,2090,,212,1530
"C=CC(=O)N1CCC(N[C@H]2CCc3cc(-n4c(-c5cccnc5N)nc5ccc(-n6cccn6)nc54)ccc32)C(C)(F)C1 (single isomer, unassigned) [Example 309, 1-((3*,4*)-4-(((S)-5-(2-(2-aminopyridin-3-yl)-5-(1H-pyrazol-1-yl)-3H-imidazo[4,5-b]pyridin-3-yl)-2,3-dihydro-1H-inden-1-yl)amino)-3-fluoro-3-methylpiperidin-1-yl)prop-2-en-1-one]",8.12,146,,22.4,110
"C=CC(=O)N1CCC(N[C@H]2CCc3cc(-n4c(-c5cccnc5N)nc5ccc(-n6cccn6)nc54)ccc32)C(F)C1 (single isomer, unassigned) [Example 105, 1-((3*,4*)-4-(((S)-5-(2-(2-aminopyridin-3-yl)-5-(1H-pyrazol-1-yl)-3H-imidazo[4,5-b]pyridin-3-yl)-2,3-dihydro-1H-inden-1-yl)amino)-3-fluoropiperidin-1-yl)prop-2-en-1-one]",14.8,4.51,,50.1,53
C=CC(=O)N1CCN(N[C@H]2CCc3cc(-n4c(-c5cccnc5N)nc5ccc(C6CC6)nc54)ccc32)CC1 [Example 349],32,1640,1160,432,
"C=CC(=O)N1CCC(N[C@H]2CCc3cc(-n4c(-c5cccnc5N)nc5ccc(C6CC6)nc54)ccc32)C(C)C1 (single isomer, unassigned) [Example 230, 1-((3*,4*)-4-(((S)-5-(2-(2-aminopyridin-3-yl)-5-cyclopropyl-3H-imidazo[4,5-b]pyridin-3-yl)-2,3-dihydro-1H-inden-1-yl)amino)-3-methylpiperidin-1-yl)prop-2-en-1-one]",41.9,890,,346,600
"C=CC(=O)N1CC2(CCC(N[C@H]3CCc4cc(-n5c(-c6cccnc6N)nc6ccc(-n7cccn7)nc65)ccc43)C2)C1 (single isomer, unassigned) [Example 91, 1-((*)-6-(((S)-5-(2-(2-aminopyridin-3-yl)-5-(1H-pyrazol-1-yl)-3H-imidazo[4,5-b]pyridin-3-yl)-2,3-dihydro-1H-inden-1-yl)amino)-2-azaspiro[3.4]octan-2-yl)prop-2-en-1-one]",116,36.6,,558,351
"C#CC1CC(N[C@H]2CCc3cc(-n4c(-c5cccnc5N)nc5ccc(-n6cccn6)nc54)ccc32)CCN1C(=O)C=C (single isomer, unassigned) [Example 112, 1-((2*,4*)-4-(((S)-5-(2-(2-aminopyridin-3-yl)-5-(1H-pyrazol-1-yl)-3H-imidazo[4,5-b]pyridin-3-yl)-2,3-dihydro-1H-inden-1-yl)amino)-2-ethynylpiperidin-1-yl)prop-2-en-1-one]",8.06,9.52,,17.6,11.8
"C=CC(=O)N1CCC(N(CCOC)[C@H]2CCc3cc(-n4c(-c5cccnc5N)nc5ccc(-n6cccn6)nc54)ccc32)CC1 [Example 74, 1-(4-{[(1S)-5-[2-(2-aminopyridin-3-yl)-5-(pyrazol-1-yl)imidazo[4,5-b]pyridin-3-yl]-2,3-dihydro-1H-inden-1-yl](2-methoxyethyl)amino}piperidin-1-yl)prop-2-en-1-one]",> 1000,179,1630,2940,
"C=CC(=O)N1CCC(N[C@H]2CCc3cc(-n4c(-c5cccnc5N)nc5ccc(OC6CC6)nc54)ccc32)CC1 [Example 198, 1-(4-{[(1S)-5-[2-(2-aminopyridin-3-yl)-5-cyclopropoxyimidazo[4,5-b]pyridin-3-yl]-2,3-dihydro-1H-inden-1-yl]amino}piperidin-1-yl)prop-2-en-1-one]",16,835,461,27,
"C=CC(=O)N1CCC(N[C@H]2CCc3cc(-n4c(-c5cccnc5N)nc5ccc(-c6ccn(C(F)F)n6)nc54)ccc32)CC1 [Example 107, 1-(4-{[(1S)-5-[2-(2-aminopyridin-3-yl)-5-[1-(difluoromethyl)pyrazol-3-yl]imidazo[4,5-b]pyridin-3-yl]-2,3-dihydro-1H-inden-1-yl]amino}piperidin-1-yl)prop-2-en-1-one]",18.1,6.19,164,192,
C=CC(=O)N1CCC(N[C@H]2CCc3cc(-n4c(-c5cccnc5N)nc5ccc(C(F)(F)F)nc54)ccc32)CC1 [Example 348],32,2670,872,362,
"C=CC(=O)N1CCC(N[C@H]2CC(F)c3cc(-n4c(-c5cccnc5N)nc5ccc(-n6cccn6)nc54)ccc32)CC1 (single isomer, unassigned) [Example 234, 1-(4-(((1S,3*)-5-(2-(2-aminopyridin-3-yl)-5-(1H-pyrazol-1-yl)-3H-imidazo[4,5-b]pyridin-3-yl)-3-fluoro-2,3-dihydro-1H-inden-1-yl)amino)piperidin-1-yl)prop-2-en-1-one]",12.1,317,,70.4,330
